# US12630580B2, “5′-O-phenylacetyluridine and therapeutic use” (PHARMA CINQ, LLC, priority 2020, dated 2026)
# How the values were obtained:
# TNFα = assay: LPS-induced elevation of plasma TNFα (inflammation model); type: in vivo; settings: female BALB/c mice; for TNF α ± SEM: plasma one hour after LPS
# Method: Injection of bacterial cell wall constituent lipopolysaccharide (LPS) has been used as a model of inflammation. The inflammatory cascade can lead to cellular and organ damage when unchecked.
# Female BALB/c mice […] of age (n=7-8/group) were treated with Vehicle (0.75% HPMC) or PAU p.o. and 30 minutes later LPS (2.5 mg/kg i.p.) was administered. One hour after LPS, mice were sacrificed and blood was collected for measurement of plasma TNFα.
# [1] = Plasma concentrations of uridine, PB and metabolites after oral administration (comparative bioavailability)
# Method: The delivery of phenylacetate into the bloodstream after oral administration of PAU was also assessed. Sodium phenylbutyrate is used in clinical practice as an ammonia scavenger in hepatic encephalopathy or genetic nitrogen cycle disorders, or as a chaperone or histone deacetylase inhibitor. It is predominantly metabolized to phenylacetate via beta-oxidation in the liver, and phenylacetate mediates the therapeutic benefits of phenylbutyrate. PAU was administered orally at a dose equimolar to 200 mg/kg sodium phenylbutyrate. Female BALB/c mice (n=3-5 group) were given test compounds p.o. and after 30 minutes were retro-orbitally bled to obtain plasma. […] An equimolar dose or uridine was used as a comparator for efficiency of delivery of uridine into the circulation by oral administration of PAU.
# [2] = female BALB/c mice, p.o., dose equimolar to 200 mg/kg sodium phenylbutyrate, plasma 30 minutes after dosing
Compound,"TNF α ± SEM (TNFα; PAU 165 mg/kg p.o. 30 minutes before LPS 2.5 mg/kg i.p., Vehicle 15,981 ± 2,951)","TNF α ± SEM (TNFα; PAU 331 mg/kg p.o. 30 minutes before LPS 2.5 mg/kg i.p., p < .05 compared to Vehicle (15,981 ± 2,951))",Anti-inflammatory effect in the LPS-induced elevation of plasma TNFα (TNFα; p.o.),"Elevation of plasma uridine and uracil compared with equimolar dose of oral uridine ([1]; oral, mice)","Plasma concentration of PA (phenylacetate) [1, 2]","Plasma concentration of PB (phenylbutyrate) [1, 2]"
"O=C(Cc1ccccc1)OC[C@H]1O[C@@H](n2ccc(=O)[nH]c2=O)[C@H](O)[C@@H]1O [PAU, 5′-O-Phenylacetyluridine]","10,068 ± 2,583 pg/ml","7,034 ± 1,236 + pg/ml",significant anti-inflammatory effect,elevated plasma uridine and uracil better,–,–
sodium phenylbutyrate [NaPB],–,–,–,–,401 µM,26 µM
